{"source": "patent US4783462A", "about": "“3(2H)pyridazinone, and anti-allergic agent containing it” (Nissan Chemical Industries Ltd., priority 1985, dated 1988)", "key": {"[1]": {"test_system": "LTC4", "experiment": "LTC4 antagonism in isolated guinea-pig trachea, Test method (i) (Table 2)", "format": "cell-based", "details": "Cavia porcellus, 5 min, read-out: Antagonism (%)", "protocol": "(§1) (i) LTC4 and LTD4 antagonisms in guinea-pig trachea\n(§2) Antagonisms for LTC4 and LTD4 were determined in isolated guinea-pig trachea prepared as spiral strip. Tracheal preparations were suspended under 1 g tension in 10 ml organ baths and they were incubated for 1 hr prior to use. Contractile responses to LTC4 (2×10^-8 g/ml) and LTD4 (2×10^-8 g/ml) were obtained after the maximal response to histamine (10^-4 M). Test compounds dissolved in 100% dimethyl sulfoxide were added to the organ baths (final concentration of 10^-5 g/ml or 10^-6 g/ml) 5 min prior to LTC4 and LTD4 addition, and then contractile responses to LTC4 and LTD4 were compared with those of control which was obtained from a paired trachea in the absence of test compounds. LTC4 - and LTD4 -induced contractions were expressed as a percentage of the maximal response to histamine. The antagonism was determined as follows:\n(§3) Antagonism (%)=(1.0-% contraction in test/% contraction in […]"}, "[2]": {"test_system": "LTC4", "experiment": "Antagonism in isolated guinea-pig trachea, Test method (i) (Table 3, given as LTC4 antagonism)", "format": "cell-based", "details": "Cavia porcellus, 5 min, test compound 10^-5 g/ml, given as LTC4 antagonisms", "procedure,_shortened": "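Spiral strips of guinea-pig trachea under 1 g tension, contracted by LTC4 (2×10^-8 g/ml) after maximal histamine (10^-4 M) response. Compounds added at 10^-5 or 10^-6 g/ml final 5 min beforehand; contraction expressed as % histamine maximum and antagonism % calculated against paired untreated trachea.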"}, "[3]": {"test_system": "anaphylactic bronchoconstriction in passively sensitized guinea-pig", "experiment": "Effect on anaphylactic bronchoconstriction in passively sensitized guinea-pig", "format": "in vivo", "details": "2 mg/kg i.v.", "protocol": "(iii) Effect on anaphylactic bronchoconstriction in passively sensitized guinea-pig\nMale guinea-pigs (350-450 g) were passively sensitized with intravenous (i.v.) injection of 0.125 ml rabbit anti-EA (egg albumin) serum (Cappel Laboratories) 1 day preceding the experiment. […] Sensitized guinea-pigs were anaesthetized with intraperitoneal injection of urethane (1.5 g/kg). The right jugular vein was cannulated for the administration of the all agents and trachea was cannulated to record total pulmonary resistance. Guinea-pigs were artificially ventilated by a small animal respirator (Shinano, Model SN-480-7) set at a stroke volume of 5 ml and a rate of 50 breaths per min. […] The increase in air overflow volume was expressed as a percentage of the maximum bronchoconstriction obtained by clamping off the trachea. Following surgical preparation, the animals were pretreated with indomethacin (1.0 mg/kg, 10 min), pyrilamine (2 mg/kg, 6 min) and propranolol (0.1 mg/kg, 5 min) prior to the EA challenge (0.1 or 10 mg/kg). All test compounds, 2 mg/kg in 3% Tween 80 or 3% PEG-400, were administered 1 min before the EA challenge. Inhibition (%) of bronchoconstriction was determined as follows: Inhibition (%)=(1.0%-maximum bronchoconstriction in test/% maximum bronchoconstriction in control)×100. The maximum bronchoconstriction was obtained within 20 min after the EA challenge.\nIn the Table, the dose of EA was 10 mg/kg, and each compound was dissolved or suspended in 3% Tween 80.\nThe dose of EA was 0.1 mg/kg."}, "[4]": {"test_system": "ddY strain male mice", "experiment": "Acute toxicity test, Test method-(2), intraperitoneal", "format": "in vivo", "details": "7 days", "protocol": "The lethal ratio was determined in ddY strain male mice (4 weeks old) at 7 days after the intraperitoneal injection of test compounds."}, "[5]": {"test_system": "LTD4", "experiment": "LTD4 antagonism in isolated guinea-pig trachea, Test method (i) (Table 4, values with asterisk)", "format": "cell-based", "details": "Cavia porcellus, 5 min, test compound 10^-6 g/ml, 5 min prior", "protocol": "as §1, §2, §3"}, "[6]": {"test_system": "ddY strain male mice", "experiment": "Acute toxicity test, Test method-(1), oral", "format": "in vivo", "details": "7 days", "protocol": "The lethal ratio was determined in ddY strain male mice (4 weeks old) at 7 days after the oral administation of test compounds."}, "[7]": {"test_system": "LTD4", "experiment": "LTD4 antagonism in isolated guinea-pig trachea with indomethacin, Test method (ii) (Table 4)", "format": "cell-based", "details": "Cavia porcellus, 0.5 h, LTD4 2×10^-8 g/ml, test compound 10^-6 g/ml, 30 min prior, 5 μmol indomethacin", "protocol": "(ii) LTD4 antagonism in guinea-pig trachea\nAntagonism for LTD4 was determined in isolated guinea-pig trachea prepared as spiral strip. Tracheal preparations were suspended under 1 g tension in 10 ml organ baths containing 5 μmol of indomethacin and they were incuated for 1 hr prior to use. Contractile responses to LTD4 (2×10^-8 g/ml) were obtained after the maximal response to histamine (10^-4 M). Test compounds dissolved in 100% dimethyl sulfoxide were added to the organ baths (final concentration of 10^-6 g/ml) 30 min prior to LTD4 addition, and then contractile responses to LTD4 were compared with those of control which was obtained from a paired trachea in the absence of test compounds. LTD4 -induced contractions were expressed as a percentage of the maximal response to histamine. The antagonism was determined as follows:\nas §3"}, "[8]": {"details": "LTC4 2×10^-8 g/ml, test compound 10^-5 g/ml"}, "[9]": {"details": "Table 5-(1), EA 10 mg/kg, 3% Tween 80"}, "[10]": {"details": "Table 5-(2), EA 0.1 mg/kg, PEG-400"}, "[11]": {"details": "Table 5-(2), EA 0.1 mg/kg, Tween 80"}}, "data": [{"smiles": "CCCc1cc(C(=O)OC)ccc1OCCCNc1cn[nH]c(=O)c1Cl", "note": "[Compound No. 4, 4-Chloro-5-[3-(2-n-propyl-4-methoxycarbonylphenoxy)propylamino]-3(2H)pyridazinone]", "values": [{"measurement": "inhibition at 10 µg/mL", "setting": "[1]; [8]", "value": 99, "unit": "%"}, {"measurement": "inhibition at 10 µg/mL", "setting": "[2]", "value": 85, "unit": "%"}, {"measurement": "Inhibition (%)", "setting": "[3]; [9]", "value": 27, "unit": "%"}, {"measurement": "Lethal ratio (Death number/Experimental number)", "setting": "[4]; 200 mg/kg intraperitoneal", "value": "0/2"}, {"measurement": "Lethal ratio (Death number/Experimental number)", "setting": "[4]; 400 mg/kg intraperitoneal", "value": "0/1"}]}, {"smiles": "CCCc1cc(C(=O)OC)ccc1OCCCNc1cnn(CC)c(=O)c1Cl", "note": "[Compound No. 6, 4-Chloro-5-[3-(2-n-propyl-4-methoxycarbonylphenoxy)propylamino]-2-ethyl-3(2H)pyridazinone]", "values": [{"measurement": "inhibition at 10 µg/mL", "setting": "[2]", "value": 96, "unit": "%"}, {"measurement": "inhibition at 1 µg/mL", "setting": "[5]", "value": 78, "unit": "%"}, {"measurement": "Inhibition (%)", "setting": "[3]; [10]", "value": 44, "unit": "%"}]}, {"smiles": "CCCc1cc(C(=O)O)ccc1OCCCNc1cnn(CC)c(=O)c1Cl", "note": "[Compound No. 7, 4-Chloro-5-[3-(2-n-propyl-4-carboxyphenoxy)propylamino]-2-ethyl-3(2H)pyridazinone]", "values": [{"measurement": "inhibition at 10 µg/mL", "setting": "[1]; [8]", "value": 95, "unit": "%"}, {"measurement": "inhibition at 10 µg/mL", "setting": "[2]", "value": 82, "unit": "%"}, {"measurement": "Inhibition (%)", "setting": "[3]; [9]", "value": 31, "unit": "%"}, {"measurement": "Lethal ratio (Death number/Experimental number)", "setting": "[4]; 200 mg/kg intraperitoneal", "value": "0/2"}, {"measurement": "Lethal ratio (Death number/Experimental number)", "setting": "[4]; 400 mg/kg intraperitoneal", "value": "0/1"}]}, {"smiles": "CCn1ncc(NCCc2ccc(OC)cc2)c(Cl)c1=O", "note": "[Compound No. 20, 4-Chloro-5-[2-(4-methoxyphenyl)ethylamino]-2-ethyl-3(2H)pyridazinone]", "values": [{"measurement": "inhibition at 10 µg/mL", "setting": "[1]; [8]", "value": 73, "unit": "%"}, {"measurement": "inhibition at 10 µg/mL", "setting": "[2]", "value": 80, "unit": "%"}]}, {"smiles": "CCCc1cc(OC)ccc1OCCCNc1cnn(CC)c(=O)c1Cl", "note": "[Compound No. 82, 4-chloro-5-[3-(2-n-propyl-4-methoxyphenoxy)propylamino]-2-ethyl-3(2H)pyridazinone]", "values": [{"measurement": "inhibition at 10 µg/mL", "setting": "[2]", "value": 100, "unit": "%"}, {"measurement": "Lethal ratio", "setting": "[6]; 400 mg/kg oral", "value": "0/2"}, {"measurement": "Lethal ratio", "setting": "[6]; 800 mg/kg oral", "value": "0/2"}]}, {"smiles": "C=CCc1cc(C#N)ccc1OCCCNc1cnn(CC)c(=O)c1Br", "note": "[Compound No. 117]", "values": [{"measurement": "inhibition at 10 µg/mL", "setting": "[2]", "value": 98, "unit": "%"}, {"measurement": "inhibition at 1 µg/mL", "setting": "[5]", "value": 67, "unit": "%"}]}, {"smiles": "CCCc1cc(C#N)ccc1OCC(CNc1cnn(C(C)C)c(=O)c1Cl)OC", "note": "(centres unmarked) [Compound No. 158, 4-Chloro-5-[3-(2-n-propyl-4-cyanophenoxy)-2-methoxypropylamino]-2-i-propyl-3(2H)pyridazinone]", "values": [{"measurement": "inhibition at 10 µg/mL", "setting": "[2]", "value": 93, "unit": "%"}, {"measurement": "inhibition at 1 µg/mL", "setting": "[5]", "value": 53, "unit": "%"}]}, {"smiles": "CCCc1c(OCC(O)COc2ccc3c(=O)cc(C(=O)O)oc3c2CCC)ccc(C(C)=O)c1O", "note": "(centres unmarked) [FPL-55712, reference compound]", "values": [{"measurement": "inhibition at 10 µg/mL", "setting": "[1]", "value": 100, "unit": "%"}, {"measurement": "inhibition at 10 µg/mL", "setting": "[2]", "value": 97, "unit": "%"}, {"measurement": "inhibition at 1 µg/mL", "setting": "[5]", "value": 76, "unit": "%"}, {"measurement": "inhibition at 1 µg/mL", "setting": "[7]", "value": 94, "unit": "%"}, {"measurement": "Inhibition (%)", "setting": "[3]; [9]", "value": 27, "unit": "%"}, {"measurement": "Inhibition (%)", "setting": "[3]; [11]", "value": 60, "unit": "%"}]}, {"smiles": "CCCc1c(OCCCOc2cnn(C(C)(C)C)c(=O)c2Cl)ccc2c(=O)cc(C(=O)OCC)oc12", "note": "[compound 23]", "values": [{"measurement": "inhibition at 10 µg/mL", "setting": "[1]; [8]", "value": 27, "unit": "%"}, {"measurement": "inhibition at 10 µg/mL", "setting": "[2]", "value": 31, "unit": "%"}]}, {"smiles": "CCCc1c(OCCCOc2cnn(CC)c(=O)c2Cl)ccc2c(=O)cc(C(=O)OCC)oc12", "note": "[compound 25]", "values": [{"measurement": "inhibition at 10 µg/mL", "setting": "[1]; [8]", "value": 53, "unit": "%"}, {"measurement": "inhibition at 10 µg/mL", "setting": "[2]", "value": 24, "unit": "%"}, {"measurement": "Inhibition (%)", "setting": "[3]; [9]", "value": 18, "unit": "%"}]}, {"smiles": "C=CCc1cc(C#N)ccc1OCCCNc1cnn(C(C)C)c(=O)c1Cl", "note": "[compound 69]", "values": [{"measurement": "inhibition at 10 µg/mL", "setting": "[2]", "value": 99, "unit": "%"}, {"measurement": "inhibition at 1 µg/mL", "setting": "[5]", "value": 66, "unit": "%"}, {"measurement": "Inhibition (%)", "setting": "[3]; [11]", "value": 51, "unit": "%"}]}, {"smiles": "Cc1ccccc1OCCCNc1cnn(C(C)C)c(=O)c1Cl", "note": "[compound 72]", "values": [{"measurement": "inhibition at 10 µg/mL", "setting": "[2]", "value": 85, "unit": "%"}, {"measurement": "Lethal ratio", "setting": "[6]; 400 mg/kg oral", "value": "0/2"}]}, {"smiles": "C=CCc1cc(C#N)ccc1OCCCNc1cnn(CC)c(=O)c1Cl", "note": "[compound 80]", "values": [{"measurement": "inhibition at 10 µg/mL", "setting": "[2]", "value": 98, "unit": "%"}, {"measurement": "inhibition at 1 µg/mL", "setting": "[5]", "value": 59, "unit": "%"}, {"measurement": "Lethal ratio", "setting": "[6]; 400 mg/kg oral", "value": "0/2"}, {"measurement": "Lethal ratio", "setting": "[6]; 800 mg/kg oral", "value": "0/2"}]}, {"smiles": "CCc1cc(C=O)ccc1OCCCNc1cnn(C(C)C)c(=O)c1Cl", "note": "[compound 94]", "values": [{"measurement": "inhibition at 10 µg/mL", "setting": "[2]", "value": 98, "unit": "%"}, {"measurement": "Lethal ratio", "setting": "[6]; 400 mg/kg oral", "value": "0/2"}, {"measurement": "Lethal ratio", "setting": "[6]; 800 mg/kg oral", "value": "0/2"}]}, {"smiles": "CCc1cc(C(=O)OC)ccc1OCCCNc1cnn(C(C)C)c(=O)c1Cl", "note": "[compound 101]", "values": [{"measurement": "inhibition at 10 µg/mL", "setting": "[2]", "value": 92, "unit": "%"}, {"measurement": "Inhibition (%)", "setting": "[3]; [10]", "value": 51, "unit": "%"}, {"measurement": "Lethal ratio", "setting": "[6]; 400 mg/kg oral", "value": "0/2"}, {"measurement": "Lethal ratio", "setting": "[6]; 800 mg/kg oral", "value": "0/2"}]}, {"smiles": "CCCc1cc(C#N)ccc1OCCCNc1cnn(CC)c(=O)c1Br", "note": "[compound 116]", "values": [{"measurement": "inhibition at 10 µg/mL", "setting": "[2]", "value": 90, "unit": "%"}, {"measurement": "inhibition at 1 µg/mL", "setting": "[5]", "value": 82, "unit": "%"}]}, {"smiles": "CCCc1cc(C(=O)OC)ccc1OCCCNc1cnn(CC)c(=O)c1Br", "note": "[compound 118]", "values": [{"measurement": "inhibition at 10 µg/mL", "setting": "[2]", "value": 91, "unit": "%"}, {"measurement": "inhibition at 1 µg/mL", "setting": "[5]", "value": 69, "unit": "%"}]}]}
